Test results from US9540348B2, “Imidazole-1-yl pyrimidine derivatives, or pharmacutically acceptable salt thereof, and pharmaceutic composition comprising the same as an active ingredient” (Industry-University Cooperation Foundation Hanyang …, priority 2015, dated 2017).
“Also recorded” adds a separate entry of the source.

Key:
cRAF1 = cRAF1 (Homo sapiens, UniProt P04049); assay: Enzymatic activity (IC50) to kinases; assay type: biochemical; conditions: read-out: IC50 (Unit: nM) cRAF1
ROS/ROS1 = ROS/ROS1 (Homo sapiens, UniProt P08922); assay: Kinase panel screening; assay type: biochemical; conditions: 10 μM concentration; read-out: Inhibition Rate (Unit: %) ROS/ROS1
Method: (§1) To Compound 10c of Example 23, kinase panel screening was carried out to 32 kinds of kinases in 10 μM concentration and the results are listed in the following Table 2.

ABL1 = ABL1 (Homo sapiens, UniProt P00519); assay: Kinase panel screening; assay type: biochemical; conditions: 10 μM concentration; read-out: Inhibition Rate (Unit: %) ABL1
Method: as §1

FGFR3 = FGFR3 (Homo sapiens, UniProt P22607); assay: Kinase panel screening; assay type: biochemical; conditions: 10 μM concentration; read-out: Inhibition Rate (Unit: %) FGFR3
Method: as §1

mTOR/FRAP1 = mTOR/FRAP1 (Homo sapiens, UniProt P42345); assay: Kinase panel screening; assay type: biochemical; conditions: 10 μM concentration; read-out: Inhibition Rate (Unit: %) mTOR/FRAP1
Method: as §1

SYK = SYK (Homo sapiens, UniProt P43405); assay: Kinase panel screening; assay type: biochemical; conditions: 10 μM concentration; read-out: Inhibition Rate (Unit: %) SYK
Method: as §1

c-Src = c-Src (Homo sapiens, UniProt P12931); assay: Kinase panel screening; assay type: biochemical; conditions: 10 μM concentration; read-out: Inhibition Rate (Unit: %) c-Src
Method: as §1

GSK3b = GSK3b (Homo sapiens, UniProt P49841); assay: Kinase panel screening; assay type: biochemical; conditions: 10 μM concentration; read-out: Inhibition Rate (Unit: %) GSK3b
Method: as §1

FAK/PTK2 = FAK/PTK2 (Homo sapiens, UniProt Q05397); assay: Kinase panel screening; assay type: biochemical; conditions: 10 μM concentration; read-out: Inhibition Rate (Unit: %) FAK/PTK2
Method: as §1

FMS = FMS (Homo sapiens, UniProt P07333); assay: Kinase panel screening; assay type: biochemical; conditions: 10 μM concentration; read-out: Inhibition Rate (Unit: %) FMS
Method: as §1

JAK3 = JAK3 (Homo sapiens, UniProt P52333); assay: Kinase panel screening; assay type: biochemical; conditions: 10 μM concentration; read-out: Inhibition Rate (Unit: %) JAK3
Method: as §1

PKA = assay: Kinase panel screening; assay type: biochemical; conditions: 10 μM concentration
Method: as §1

IGF1R = IGF1R (Homo sapiens, UniProt P08069); assay: Kinase panel screening; assay type: biochemical; conditions: 10 μM concentration; read-out: Inhibition Rate (Unit: %) IGF1R
Method: as §1

BRAF = BRAF (Homo sapiens, UniProt P15056); assay: Kinase panel screening; assay type: biochemical; conditions: 10 μM concentration
Method: as §1

BTK = BTK (Homo sapiens, UniProt Q06187); assay: Kinase panel screening; assay type: biochemical; conditions: 10 μM concentration; read-out: Inhibition Rate (Unit: %) BTK
Method: as §1

CDK1/cyclin B = CDK1/cyclin B (Homo sapiens, UniProt P06493); assay: Kinase panel screening; assay type: biochemical; conditions: 10 μM concentration; read-out: Inhibition Rate (Unit: %) CDK1/cyclin B
Method: as §1

P38a/MAPK14 [1] = target: T1, P38a/MAPK14 (Homo sapiens, UniProt Q16539); assay: Kinase panel screening; assay type: biochemical; conditions: 10 μM concentration; read-out: Inhibition Rate (Unit: %) P38a/MAPK14
Method: as §1

LYN = LYN (Homo sapiens, UniProt P07948); assay: Kinase panel screening; assay type: biochemical; conditions: 10 μM concentration; read-out: Inhibition Rate (Unit: %) LYN
Method: as §1

RAF1 = RAF1 (Homo sapiens, UniProt P04049); assay: Kinase panel screening; assay type: biochemical; conditions: 10 μM concentration
Method: as §1

EGFR = EGFR (Homo sapiens, UniProt P00533); assay: Kinase panel screening; assay type: biochemical; conditions: 10 μM concentration; read-out: Inhibition Rate (Unit: %) EGFR
Method: as §1

ERK1 = ERK1 (Homo sapiens, UniProt P27361); assay: Kinase panel screening; assay type: biochemical; conditions: 10 μM concentration; read-out: Inhibition Rate (Unit: %) ERK1
Method: as §1

MEK1 = MEK1 (Homo sapiens, UniProt Q02750); assay: Kinase panel screening; assay type: biochemical; conditions: 10 μM concentration; read-out: Inhibition Rate (Unit: %) MEK1
Method: as §1

AKT1 = AKT1 (Homo sapiens, UniProt P31749); assay: Kinase panel screening; assay type: biochemical; conditions: 10 μM concentration; read-out: Inhibition Rate (Unit: %) AKT1
Method: as §1

JNK3 = JNK3 (Homo sapiens, UniProt P53779); assay: Kinase panel screening; assay type: biochemical; conditions: 10 μM concentration; read-out: Inhibition Rate (Unit: %) JNK3
Method: as §1

PLK1 = PLK1 (Homo sapiens, UniProt P53350); assay: Kinase panel screening; assay type: biochemical; conditions: 10 μM concentration; read-out: Inhibition Rate (Unit: %) PLK1
Method: as §1

FLT3 = FLT3 (Homo sapiens, UniProt P36888); assay: Kinase panel screening; assay type: biochemical; conditions: 10 μM concentration; read-out: Inhibition Rate (Unit: %) FLT3
Method: as §1

LCK = LCK (Homo sapiens, UniProt P06239); assay: Kinase panel screening; assay type: biochemical; conditions: 10 μM concentration; read-out: Inhibition Rate (Unit: %) LCK
Method: as §1

[2] = system: most other kinases except cKit (KIT) and p38a (MAPK14); assay: Kinase panel screening, summary for the other kinases; assay type: biochemical; conditions: 10 μM concentration
Method: as §1

wild-type BRAF = wild-type BRAF (Homo sapiens, UniProt P15056); assay: Enzymatic activity (IC50) to kinases; assay type: biochemical; conditions: read-out: IC50 (Unit: nM) BRAF
[3] = system: A375P human melanoma cell line; assay: Antiproliferative activity to A375P human melanoma cell line; assay type: cell-based
Method: The antiproliferative activity of the compounds of Examples to A375P human melanoma cell line and U937 human leukemic monocyte lymphoma cell line are evaluated and listed in the following Table 1.

P38a/MAPK14 [4] = target: T1, P38a/MAPK14; assay: Enzymatic activity (IC50) to kinases; assay type: biochemical; conditions: read-out: IC50 (Unit: nM) P38a/MAPK14

T1 sequence (Q16539 whole entry): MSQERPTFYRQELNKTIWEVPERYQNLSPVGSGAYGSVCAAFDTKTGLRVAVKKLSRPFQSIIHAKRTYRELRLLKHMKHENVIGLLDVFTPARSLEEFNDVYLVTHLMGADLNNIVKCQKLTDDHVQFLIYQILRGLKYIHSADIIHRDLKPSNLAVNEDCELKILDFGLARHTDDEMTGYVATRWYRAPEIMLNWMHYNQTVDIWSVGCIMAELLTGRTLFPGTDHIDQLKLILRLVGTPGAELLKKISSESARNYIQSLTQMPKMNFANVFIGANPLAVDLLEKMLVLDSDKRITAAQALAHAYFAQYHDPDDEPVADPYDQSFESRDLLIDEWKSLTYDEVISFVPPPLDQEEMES
Sequence of BRAF (P15056 whole entry): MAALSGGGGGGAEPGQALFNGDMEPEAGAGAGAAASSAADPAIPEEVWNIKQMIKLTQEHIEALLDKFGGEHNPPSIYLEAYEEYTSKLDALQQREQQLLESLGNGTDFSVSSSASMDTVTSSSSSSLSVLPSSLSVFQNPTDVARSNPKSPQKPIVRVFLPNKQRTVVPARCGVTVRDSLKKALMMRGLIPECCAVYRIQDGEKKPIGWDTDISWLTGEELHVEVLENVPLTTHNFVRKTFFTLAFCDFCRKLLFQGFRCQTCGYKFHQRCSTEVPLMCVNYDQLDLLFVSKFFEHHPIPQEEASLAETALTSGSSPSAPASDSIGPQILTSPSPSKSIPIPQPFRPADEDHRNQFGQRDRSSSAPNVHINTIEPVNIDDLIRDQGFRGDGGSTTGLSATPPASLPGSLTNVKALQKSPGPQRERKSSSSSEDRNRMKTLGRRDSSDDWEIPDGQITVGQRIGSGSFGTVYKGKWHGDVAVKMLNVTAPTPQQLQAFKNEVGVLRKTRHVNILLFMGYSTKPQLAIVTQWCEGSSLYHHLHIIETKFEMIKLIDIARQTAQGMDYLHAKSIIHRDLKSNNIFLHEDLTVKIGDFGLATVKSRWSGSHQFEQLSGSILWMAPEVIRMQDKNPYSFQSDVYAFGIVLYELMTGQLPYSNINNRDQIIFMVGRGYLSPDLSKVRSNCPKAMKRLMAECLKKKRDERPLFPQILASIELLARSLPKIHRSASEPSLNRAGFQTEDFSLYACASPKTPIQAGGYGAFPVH
Sequence of RAF1 (P04049 whole entry): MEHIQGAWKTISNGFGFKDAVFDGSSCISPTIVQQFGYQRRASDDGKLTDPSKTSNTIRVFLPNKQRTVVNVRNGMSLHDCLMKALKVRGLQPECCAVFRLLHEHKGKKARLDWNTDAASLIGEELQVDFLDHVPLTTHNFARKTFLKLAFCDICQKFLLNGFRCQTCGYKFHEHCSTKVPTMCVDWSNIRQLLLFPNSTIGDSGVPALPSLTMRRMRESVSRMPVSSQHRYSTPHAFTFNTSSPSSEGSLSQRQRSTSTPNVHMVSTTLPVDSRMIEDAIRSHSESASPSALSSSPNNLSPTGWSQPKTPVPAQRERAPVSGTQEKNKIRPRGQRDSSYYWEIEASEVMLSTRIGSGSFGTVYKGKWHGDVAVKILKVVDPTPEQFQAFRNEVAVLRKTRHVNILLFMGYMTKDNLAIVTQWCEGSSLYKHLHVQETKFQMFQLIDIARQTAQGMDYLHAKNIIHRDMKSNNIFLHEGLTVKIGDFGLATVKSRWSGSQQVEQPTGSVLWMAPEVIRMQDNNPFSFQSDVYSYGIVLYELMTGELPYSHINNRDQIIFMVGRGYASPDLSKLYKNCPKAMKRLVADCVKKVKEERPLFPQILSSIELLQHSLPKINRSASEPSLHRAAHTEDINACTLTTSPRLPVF
Sequence of FMS (P07333 20-972, species assumed): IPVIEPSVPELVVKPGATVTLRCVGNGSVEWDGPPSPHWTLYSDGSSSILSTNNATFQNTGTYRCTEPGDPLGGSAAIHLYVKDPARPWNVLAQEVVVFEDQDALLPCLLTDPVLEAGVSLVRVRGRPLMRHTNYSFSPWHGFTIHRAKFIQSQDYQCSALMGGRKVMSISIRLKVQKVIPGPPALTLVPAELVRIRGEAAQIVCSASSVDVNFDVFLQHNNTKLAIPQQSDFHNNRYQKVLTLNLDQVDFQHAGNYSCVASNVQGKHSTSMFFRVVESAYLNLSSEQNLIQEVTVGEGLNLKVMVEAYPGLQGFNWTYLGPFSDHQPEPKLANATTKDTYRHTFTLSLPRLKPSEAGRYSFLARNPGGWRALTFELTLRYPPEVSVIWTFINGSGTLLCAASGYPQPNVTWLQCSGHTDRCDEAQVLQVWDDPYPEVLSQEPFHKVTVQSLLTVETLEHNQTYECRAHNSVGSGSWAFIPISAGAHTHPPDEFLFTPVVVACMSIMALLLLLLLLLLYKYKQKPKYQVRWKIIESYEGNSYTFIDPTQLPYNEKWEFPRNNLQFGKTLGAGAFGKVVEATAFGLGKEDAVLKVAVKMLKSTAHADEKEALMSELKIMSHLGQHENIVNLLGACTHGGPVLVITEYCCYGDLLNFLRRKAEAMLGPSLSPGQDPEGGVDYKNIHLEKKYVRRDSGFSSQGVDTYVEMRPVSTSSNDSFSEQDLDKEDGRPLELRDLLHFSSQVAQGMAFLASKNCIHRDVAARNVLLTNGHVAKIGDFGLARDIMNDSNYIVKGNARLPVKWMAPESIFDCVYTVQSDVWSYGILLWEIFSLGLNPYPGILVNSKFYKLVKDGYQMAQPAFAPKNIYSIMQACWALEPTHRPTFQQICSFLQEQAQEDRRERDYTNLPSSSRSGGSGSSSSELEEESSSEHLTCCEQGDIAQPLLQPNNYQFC
Sequence of JAK3 (P52333 whole entry, species assumed): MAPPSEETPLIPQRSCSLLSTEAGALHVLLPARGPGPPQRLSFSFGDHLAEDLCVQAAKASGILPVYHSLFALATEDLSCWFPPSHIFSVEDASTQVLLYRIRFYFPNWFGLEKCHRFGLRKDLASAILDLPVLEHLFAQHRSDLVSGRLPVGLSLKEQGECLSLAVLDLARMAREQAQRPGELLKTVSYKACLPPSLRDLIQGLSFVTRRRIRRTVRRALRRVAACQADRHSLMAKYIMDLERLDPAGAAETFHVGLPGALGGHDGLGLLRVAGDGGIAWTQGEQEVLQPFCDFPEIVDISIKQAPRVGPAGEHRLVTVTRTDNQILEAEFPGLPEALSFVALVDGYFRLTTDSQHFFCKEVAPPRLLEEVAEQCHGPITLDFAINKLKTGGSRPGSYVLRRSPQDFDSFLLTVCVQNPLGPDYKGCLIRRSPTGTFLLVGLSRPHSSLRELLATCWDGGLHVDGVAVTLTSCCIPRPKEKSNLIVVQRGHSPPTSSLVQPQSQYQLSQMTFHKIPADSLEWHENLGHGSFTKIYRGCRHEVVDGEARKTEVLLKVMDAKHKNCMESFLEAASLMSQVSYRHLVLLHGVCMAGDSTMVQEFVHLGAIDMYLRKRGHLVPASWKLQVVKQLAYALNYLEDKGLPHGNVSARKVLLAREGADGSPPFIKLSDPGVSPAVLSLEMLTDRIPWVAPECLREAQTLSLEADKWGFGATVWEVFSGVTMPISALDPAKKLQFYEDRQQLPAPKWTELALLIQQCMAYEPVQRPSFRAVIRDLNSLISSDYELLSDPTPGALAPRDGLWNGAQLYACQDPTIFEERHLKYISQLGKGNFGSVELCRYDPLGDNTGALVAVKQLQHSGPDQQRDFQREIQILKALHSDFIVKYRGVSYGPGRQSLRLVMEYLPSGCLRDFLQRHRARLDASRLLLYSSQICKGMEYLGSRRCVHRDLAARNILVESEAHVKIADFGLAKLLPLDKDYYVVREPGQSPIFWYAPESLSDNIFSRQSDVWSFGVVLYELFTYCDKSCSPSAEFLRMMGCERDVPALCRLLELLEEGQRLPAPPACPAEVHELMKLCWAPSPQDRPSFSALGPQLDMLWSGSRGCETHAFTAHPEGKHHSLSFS
Sequence of PLK1 (P53350 whole entry, species assumed): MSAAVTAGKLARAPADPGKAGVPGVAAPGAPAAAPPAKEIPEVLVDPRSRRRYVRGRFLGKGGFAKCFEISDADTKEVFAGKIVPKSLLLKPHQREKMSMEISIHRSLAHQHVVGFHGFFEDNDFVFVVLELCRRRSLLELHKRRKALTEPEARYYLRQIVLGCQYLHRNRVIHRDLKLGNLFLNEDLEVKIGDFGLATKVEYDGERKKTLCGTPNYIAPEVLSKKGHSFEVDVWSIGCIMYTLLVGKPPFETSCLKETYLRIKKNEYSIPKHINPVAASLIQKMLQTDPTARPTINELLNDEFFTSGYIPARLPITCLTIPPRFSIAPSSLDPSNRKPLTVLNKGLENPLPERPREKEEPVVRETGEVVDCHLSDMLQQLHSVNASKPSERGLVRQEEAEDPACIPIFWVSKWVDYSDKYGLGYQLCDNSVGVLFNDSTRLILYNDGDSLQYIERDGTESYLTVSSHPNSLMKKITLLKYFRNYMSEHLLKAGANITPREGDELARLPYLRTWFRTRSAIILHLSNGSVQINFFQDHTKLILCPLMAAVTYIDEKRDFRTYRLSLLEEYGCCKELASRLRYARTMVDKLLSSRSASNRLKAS
Sequence of AKT1 (P31749 whole entry, species assumed): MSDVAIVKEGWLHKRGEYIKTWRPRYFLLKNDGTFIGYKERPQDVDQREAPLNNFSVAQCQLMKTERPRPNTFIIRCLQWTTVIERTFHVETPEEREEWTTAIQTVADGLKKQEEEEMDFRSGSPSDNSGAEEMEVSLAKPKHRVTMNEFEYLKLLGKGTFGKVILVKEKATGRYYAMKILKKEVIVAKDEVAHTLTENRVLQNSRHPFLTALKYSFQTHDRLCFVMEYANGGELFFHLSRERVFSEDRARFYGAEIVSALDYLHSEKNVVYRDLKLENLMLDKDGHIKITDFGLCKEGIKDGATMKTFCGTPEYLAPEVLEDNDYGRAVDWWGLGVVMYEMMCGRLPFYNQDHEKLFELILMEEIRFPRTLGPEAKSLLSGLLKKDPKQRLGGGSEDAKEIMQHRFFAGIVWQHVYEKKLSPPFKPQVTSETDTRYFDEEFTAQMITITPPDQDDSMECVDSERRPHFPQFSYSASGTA
Sequence of wild-type BRAF (P15056 whole entry): as the sequence (P15056 whole entry) above

- IC50 (cRAF1): 8.79 nM
- inhibition at 10 µM (ROS/ROS1): 0.73%
- inhibition at 10 µM (ABL1): 6.9%
- inhibition at 10 µM (FGFR3): 3.5%
- inhibition at 10 µM (mTOR/FRAP1): 0%
- inhibition at 10 µM (SYK): 0%
- inhibition at 10 µM (c-Src): 2.1%
- inhibition at 10 µM (GSK3b): 34.5%
- inhibition at 10 µM (FAK/PTK2): 1.2%
- inhibition at 10 µM (FMS): 33.6%
- inhibition at 10 µM (JAK3): 0%
- Inhibition Rate (Unit: %) PKA (PKA): 0%
- inhibition at 10 µM (IGF1R): 0%
- Inhibition Rate (Unit: %) BRAF (BRAF; 10 µM): 99.9%
- inhibition at 10 µM (BRAF; read-out: Inhibition Rate (Unit: %) BRAF): 99%
- inhibition at 10 µM (BTK): 0%
- inhibition at 10 µM (CDK1/cyclin B): 34.8%
- inhibition at 10 µM (P38a/MAPK14 [1]): 94.3%
- inhibition at 10 µM (LYN): 8.1%
- Inhibition Rate (Unit: %) RAF1 (RAF1; 10 µM): 98.7%
- inhibition at 10 µM (RAF1; read-out: Inhibition Rate (Unit: %) RAF1): 99%
- inhibition at 10 µM (EGFR): 0%
- inhibition at 10 µM (ERK1): 0%
- inhibition at 10 µM (MEK1): 0%
- inhibition at 10 µM (AKT1): 12.9%
- inhibition at 10 µM (JNK3): 0%
- inhibition at 10 µM (PLK1): 9.9%
- inhibition at 10 µM (FLT3): 68.4%
- inhibition at 10 µM (LCK): 5.8%
- inhibition rate to most other kinases [2]: less than 30%
- IC50 (wild-type BRAF): 186 nM
- GI50 ([3]; A375P human melanoma cell line, read-out: A375P (GI50, Unit: μM)): 1.82 µM
- IC50 (P38a/MAPK14 [4]): 571 nM
SMILES: C[C@H](O)CNc1nccc(-n2ccnc2Cc2cccc(NC(=O)Nc3ccc(C(F)(F)F)c(Cl)c3)c2)n1 [Example 23, (S)-1-(3-chloro-4-(trifluoromethyl)phenyl)-3-(3-((1-(2-((2-hydroxypropyl)amino)pyrimidin-4-yl)-1H-imidazol-2-yl)methyl)phenyl)urea]
- potency against A375P, in words ([3]; A375P cell line, comparison with Sorafenib): large potencies; also recorded: better potencies than Sorafenib
